Measured values taken from patent US20060079537A1, “2-Substitutued triazolopyrimidines, methods and intermediate products for the production thereof, the use of the same controlling pathogenic fungi, and agents containing said compounds” (priority 2002, published 2006).

System: Alternaria solani
Assay: Activity against early blight of tomato caused by Alternaria solani, protective application
Format: in vivo
Conditions: 250 ppm active compound, sprayed to runoff one day before infection; visual rating after 5 days; untreated plants 100% infected
Experimental: The active compounds were formulated as a stock solution prepared using 0.25% by weight of active compound in acetone of DMSO. 1% by weight of the emulsifier Uniperol® EL (wetting agent having emulsifying and dispersant action based on ethoxylated alkylphenols) was added to this solution, and the solution was diluted with water to give the desired concentration.
Leaves of potted plants of the tomato cultivar: “Large Fruited St. Pierre” were sprayed to runoff point with an aqueous suspension having the concentration of active compound stated below. The next day, the leaves were infected with an aqueous spore suspension of Alternaria solani in a 2% biomalt solution having a density of 0.17×10^6 spores/ml. The plants were then placed in a water-vapor-saturated chamber at 20-22° C. After 5 days, the blight on the untreated but infected control plants had developed to such an extent that the infection could be determined visually in %.

CSc1nc2nc(C)c(-c3c(F)cc(F)cc3F)c(N3CCC(C)CC3)n2n1 [Example 3, 5-methyl-6-(2,4,6-trifluorophenyl)-7-(4-methylpiperidin-1-yl)-2-thiomethyl-[1,2,4]-triazolo[1,5-a]pyrimidine]
infection: 20%
